US11912681B2, “Crystalline and salt forms of PPAR agonist compounds” (Mitobridge, Inc., priority 2016, dated 2024)

How the values were obtained:
Assay type in all cases: physicochemical
[1] = Stability of Compound A salts in water (XRPD); conditions: about 20 mg in 1 mL water, overnight, 20° C., 850 rpm
Protocol: The stability of the sulfate, phosphate, L-lysine, and TRIS salts prepared in Example 3 were tested. Approximately 20 mg of each sample was combined with 1 mL of water in microcentrifuge tubes. The samples were allowed to mix overnight on a temperature controlled shaker at 20° C. at 850 rpm. The solids were characterized by XPRD to determine if a solid state form change occurred.

[2] = Thermodynamic stability form (slurry) screen, XRPD; conditions: fifteen days
Protocol: The vials were sealed then placed onto temperature controlled stir plates and stirred for fifteen days at 500 rpm.

[3] = Chemical stability study, degradation and recovery by HPLC
Protocol: (§1) The material was stored at 4° C., 25° C./60% RH, 40° C., and 40° C./75% RH for eight weeks as well as stressed conditions of 70° C. and 70° C./75% RH for two weeks. In addition, photostability was also measured after exposing the material to two cycles of ICH conditions. Degradation and recovery was measured by HPLC. See Table 6 for HPLC results, including percent recovery of solids and relative retention time area percentages, compared against the standard stored at 4° C.

[4] = Physical stability on storage by XRPD; conditions: all storage conditions of the stability study
Protocol: as §1
XRPD was used to check the physical stability.

[5] = Dynamic vapor sorption analysis (hygroscopicity)
Description: At approximately 90% RH, the material reversibly picks up approximately 3.5% water by weight.

[6] = Relative thermodynamic stability of hemisulfate form 1 and form 2 (DSC, competition slurry); conditions: ethyl acetate, two days at 25° C. then eight days at 4° C., slurried with form 1
Protocol: […] Both forms were still present in the slurry, so the experiment was moved to 4° C.
After two days, both forms were still present in the slurry, so the experiment was moved to 4° C.

With `Cc1cnc(-c2ccc(C(F)(F)F)cc2)n1Cc1ccccc1OCCC[C@@H](C)CC(=O)O` [Compound A hemisulfate form 1, (R)-3-methyl-6-(2-((5-methyl-2-(4-(trifluoromethyl)phenyl)-1H-imidazol-1-yl)methyl)phenoxy)hexanoic acid] the “solid state form change (XRPD) after mixing in water” value [1] was “no change in the solids”, the “Results (solid state form after slurry)” value ([2]; 2-Methyl-THF, 25° C.) was “No change in form” and the “Results (solid state form after slurry)” value ([2]; 2-Propanol, 50° C.) was “No change in form”. For the same compound, the “Results (solid state form after slurry)” value ([2]; Acetone, 25° C.) was “No change in form”, the “Results (solid state form after slurry)” value ([2]; Acetonitrile, 50° C.) was “No change in form” and the “Results (solid state form after slurry)” value ([2]; CPME, 50° C.) was “No change in form”. The “Results (solid state form after slurry)” value ([2]; Dichloromethane, 4° C.) was “No change in form”, the “Results (solid state form after slurry)” value ([2]; Ethanol, 50° C.) was “No change in form” and the “Results (solid state form after slurry)” value ([2]; Ethyl Acetate, 50° C.) was “No change in form”. For the same compound, the “Results (solid state form after slurry)” value ([2]; Tetrahydrofuran, 25° C.) was “No change in form”, the “Results (solid state form after slurry)” value ([2]; Toluene, 50° C.) was “No change in form” and the “Results (solid state form after slurry)” value ([2]; Water, 25° C.) was “No change in form”. For the same compound, the “Results (solid state form after slurry)” value ([2]; Water/Acetonitrile (1/3, v/v), 4° C.) was “No change in form”, the “% recovery of solids (HPLC)” value ([3]; 4° C., 4 wk) was 101% and the “% recovery of solids (HPLC)” value ([3]; 4° C., 8 wk) was 100%. For the same compound, the “% recovery of solids (HPLC)” value ([3]; 25° C./60% RH, 4 wk) was 100%, the “% recovery of solids (HPLC)” value ([3]; 25° C./60% RH, 8 wk) was 99% and the “% recovery of solids (HPLC)” value ([3]; 40° C., 4 wk) was 101%. The “% recovery of solids (HPLC)” value ([3]; 40° C., 8 wk) was 101%, the “% recovery of solids (HPLC)” value ([3]; 40° C./75% RH, 4 wk) was 101% and the “% recovery of solids (HPLC)” value ([3]; 40° C./75% RH, 8 wk) was 100%. For the same compound, the “% recovery of solids (HPLC)” value ([3]; 70° C., 2 wk) was 101%, the “% recovery of solids (HPLC)” value ([3]; 70° C./75% RH, 2 wk) was 101% and the “% recovery of solids (HPLC)” value ([3]; Control (dark) of photostability) was 100%. For the same compound, the “% recovery of solids (HPLC)” value ([3]; Photo, two cycles of ICH conditions) was 98%, the “physical stability, solid state form (XRPD)” value [4] was “No changes in solid state form” and the “water picked up by weight (DVS)” value ([5]; 25° C., approximately 90% RH, reversible) was “approximately 3.5%”. The “solid form after DVS (XRPD)” value ([5]; after DVS at 25° C.) was “remained Compound A hemisulfate form 1”.

In the case of `Cc1cnc(-c2ccc(C(F)(F)F)cc2)n1Cc1ccccc1OCCC[C@@H](C)CC(=O)O` [Compound A hemisulfate form 2, (R)-3-methyl-6-(2-((5-methyl-2-(4-(trifluoromethyl)phenyl)-1H-imidazol-1-yl)methyl)phenoxy)hexanoic acid], the “competition slurry outcome (XRPD)” value [6] is reported as “remained a mixture of forms”.
